# Reference: patent US8598365B2, “Herbicides” (Syngenta Limited, priority 2007, dated 2013)
# Tested on: Setaria faberi (SETFA)
# Experiment: Example B pre-emergence herbicidal activity
# Type: in vivo
# Settings: 312 h, rate 250 g/ha, evaluated after 13 days, read-out: Pre-Emergence Activity SETFA (100=total damage to plant; 0=no damage to plant)
# Procedure, shortened: (§1)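 Damage was rated 13 days after treatment on a 0 (no damage) to 100 (total damage) scale. Pots of soil-sown plants had been sprayed one day after sowing for pre-emergence or at 8 days for post-emergence. Spray: acetone/water (50:50), 0.5% Tween 20.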
row,SMILES,pest or weed control at 250 g/ha [%]
1,Cc1sc(-c2ccc(Cl)c(Cl)c2)nc1C1=C(OC(=O)C(C)(C)C)[C@H]2CC[C@H](C2)C1=O [Compound P3],100
2,CCc1sc(-c2cnc(Cl)cc2C)nc1C1C(=O)[C@@H]2CC[C@@H](C2)C1=O (some centres unmarked) [Compound T110],100
3,Cc1sc(-c2ccc(Cl)c(C#N)c2)nc1C1C(=O)C2CCC(C2)C1=O (centres unmarked) [Compound T74],40
4,Cc1sc(-c2ccc(OC(F)F)cc2Cl)nc1C1C(=O)[C@@H]2CC[C@@H](C2)C1=O (some centres unmarked) [Compound T84],100
5,Cc1cc(Br)ccc1-c1nc(C2=C(OC(=O)C3CC3)[C@@H]3CC[C@@H](C3)C2=O)c(C)s1 [Compound P13],100

# Tested on: Echinochloa crus-galli (ECHCG)
# Experiment: Example B pre-emergence herbicidal activity
# Type: in vivo
# Settings: 312 h, rate 250 g/ha, evaluated after 13 days, read-out: Pre-Emergence Activity ECHCG (100=total damage to plant; 0=no damage to plant)
# Procedure, shortened: as §1
row,SMILES,pest or weed control at 250 g/ha [%]
1,Cc1sc(-c2ccc(Cl)c(Cl)c2)nc1C1=C(OC(=O)C(C)(C)C)[C@H]2CC[C@H](C2)C1=O [Compound P3],80
2,CCc1sc(-c2cnc(Cl)cc2C)nc1C1C(=O)[C@@H]2CC[C@@H](C2)C1=O (some centres unmarked) [Compound T110],60
3,Cc1sc(-c2ccc(Cl)c(C#N)c2)nc1C1C(=O)C2CCC(C2)C1=O (centres unmarked) [Compound T74],20
4,Cc1sc(-c2ccc(OC(F)F)cc2Cl)nc1C1C(=O)[C@@H]2CC[C@@H](C2)C1=O (some centres unmarked) [Compound T84],100
5,Cc1cc(Br)ccc1-c1nc(C2=C(OC(=O)C3CC3)[C@@H]3CC[C@@H](C3)C2=O)c(C)s1 [Compound P13],50

# Tested on: Amaranthus retoflexus (AMARE)
# Experiment: Example B pre-emergence herbicidal activity
# Type: in vivo
# Settings: Amaranthus retroflexus, 312 h, rate 250 g/ha, evaluated after 13 days, read-out: Pre-Emergence Activity AMARE (100=total damage to plant; 0=no damage to plant)
# Procedure, shortened: as §1
row,SMILES,pest or weed control at 250 g/ha [%]
1,Cc1sc(-c2ccc(Cl)c(Cl)c2)nc1C1=C(OC(=O)C(C)(C)C)[C@H]2CC[C@H](C2)C1=O [Compound P3],0
2,CCc1sc(-c2cnc(Cl)cc2C)nc1C1C(=O)[C@@H]2CC[C@@H](C2)C1=O (some centres unmarked) [Compound T110],20
3,Cc1sc(-c2ccc(Cl)c(C#N)c2)nc1C1C(=O)C2CCC(C2)C1=O (centres unmarked) [Compound T74],100
4,Cc1sc(-c2ccc(OC(F)F)cc2Cl)nc1C1C(=O)[C@@H]2CC[C@@H](C2)C1=O (some centres unmarked) [Compound T84],0
5,Cc1cc(Br)ccc1-c1nc(C2=C(OC(=O)C3CC3)[C@@H]3CC[C@@H](C3)C2=O)c(C)s1 [Compound P13],0

# Tested on: Avena fatua (AVEFA)
# Experiment: Example B pre-emergence herbicidal activity
# Type: in vivo
# Settings: 312 h, rate 250 g/ha, evaluated after 13 days, read-out: Pre-Emergence Activity AVEFA (100=total damage to plant; 0=no damage to plant)
# Procedure, shortened: as §1
row,SMILES,pest or weed control at 250 g/ha [%]
1,Cc1sc(-c2ccc(Cl)c(Cl)c2)nc1C1=C(OC(=O)C(C)(C)C)[C@H]2CC[C@H](C2)C1=O [Compound P3],0
2,CCc1sc(-c2cnc(Cl)cc2C)nc1C1C(=O)[C@@H]2CC[C@@H](C2)C1=O (some centres unmarked) [Compound T110],30
3,Cc1sc(-c2ccc(Cl)c(C#N)c2)nc1C1C(=O)C2CCC(C2)C1=O (centres unmarked) [Compound T74],0
4,Cc1sc(-c2ccc(OC(F)F)cc2Cl)nc1C1C(=O)[C@@H]2CC[C@@H](C2)C1=O (some centres unmarked) [Compound T84],40
5,Cc1cc(Br)ccc1-c1nc(C2=C(OC(=O)C3CC3)[C@@H]3CC[C@@H](C3)C2=O)c(C)s1 [Compound P13],100

# Tested on: Alopecurus myosuroides (ALOMY)
# Experiment: Example B pre-emergence herbicidal activity
# Type: in vivo
# Settings: 312 h, rate 250 g/ha, evaluated after 13 days, read-out: Pre-Emergence Activity ALOMY (100=total damage to plant; 0=no damage to plant)
# Procedure, shortened: as §1
row,SMILES,pest or weed control at 250 g/ha [%]
1,Cc1sc(-c2ccc(Cl)c(Cl)c2)nc1C1=C(OC(=O)C(C)(C)C)[C@H]2CC[C@H](C2)C1=O [Compound P3],20
2,CCc1sc(-c2cnc(Cl)cc2C)nc1C1C(=O)[C@@H]2CC[C@@H](C2)C1=O (some centres unmarked) [Compound T110],30
3,Cc1sc(-c2ccc(Cl)c(C#N)c2)nc1C1C(=O)C2CCC(C2)C1=O (centres unmarked) [Compound T74],30
4,Cc1sc(-c2ccc(OC(F)F)cc2Cl)nc1C1C(=O)[C@@H]2CC[C@@H](C2)C1=O (some centres unmarked) [Compound T84],70
5,Cc1cc(Br)ccc1-c1nc(C2=C(OC(=O)C3CC3)[C@@H]3CC[C@@H](C3)C2=O)c(C)s1 [Compound P13],70

# Tested on: Setaria faberi (SETFA)
# Experiment: Example B post-emergence herbicidal activity
# Type: in vivo
# Settings: 312 h, rate 250 g/ha, evaluated after 13 days, read-out: Post-emergence activity SETFA (100=total damage to plant; 0=no damage to plant)
# Procedure, shortened: as §1
row,SMILES,pest or weed control at 250 g/ha [%]
1,Cc1sc(-c2ccc(Cl)c(Cl)c2)nc1C1=C(OC(=O)C(C)(C)C)[C@H]2CC[C@H](C2)C1=O [Compound P3],100
2,CCc1sc(-c2cnc(Cl)cc2C)nc1C1C(=O)[C@@H]2CC[C@@H](C2)C1=O (some centres unmarked) [Compound T110],100
3,Cc1sc(-c2ccc(Cl)c(C#N)c2)nc1C1C(=O)C2CCC(C2)C1=O (centres unmarked) [Compound T74],90
4,Cc1sc(-c2ccc(OC(F)F)cc2Cl)nc1C1C(=O)[C@@H]2CC[C@@H](C2)C1=O (some centres unmarked) [Compound T84],100
5,Cc1cc(Br)ccc1-c1nc(C2=C(OC(=O)C3CC3)[C@@H]3CC[C@@H](C3)C2=O)c(C)s1 [Compound P13],100

# Tested on: Echinochloa crus-galli (ECHCG)
# Experiment: Example B post-emergence herbicidal activity
# Type: in vivo
# Settings: 312 h, rate 250 g/ha, evaluated after 13 days, read-out: Post-emergence activity ECHCG (100=total damage to plant; 0=no damage to plant)
# Procedure, shortened: as §1
row,SMILES,pest or weed control at 250 g/ha [%]
1,Cc1sc(-c2ccc(Cl)c(Cl)c2)nc1C1=C(OC(=O)C(C)(C)C)[C@H]2CC[C@H](C2)C1=O [Compound P3],80
2,CCc1sc(-c2cnc(Cl)cc2C)nc1C1C(=O)[C@@H]2CC[C@@H](C2)C1=O (some centres unmarked) [Compound T110],90
3,Cc1sc(-c2ccc(Cl)c(C#N)c2)nc1C1C(=O)C2CCC(C2)C1=O (centres unmarked) [Compound T74],70
4,Cc1sc(-c2ccc(OC(F)F)cc2Cl)nc1C1C(=O)[C@@H]2CC[C@@H](C2)C1=O (some centres unmarked) [Compound T84],100
5,Cc1cc(Br)ccc1-c1nc(C2=C(OC(=O)C3CC3)[C@@H]3CC[C@@H](C3)C2=O)c(C)s1 [Compound P13],100

# Tested on: Amaranthus retoflexus (AMARE)
# Experiment: Example B post-emergence herbicidal activity
# Type: in vivo
# Settings: Amaranthus retroflexus, 312 h, rate 250 g/ha, evaluated after 13 days, read-out: Post-emergence activity AMARE (100=total damage to plant; 0=no damage to plant)
# Procedure, shortened: as §1
row,SMILES,pest or weed control at 250 g/ha [%]
1,Cc1sc(-c2ccc(Cl)c(Cl)c2)nc1C1=C(OC(=O)C(C)(C)C)[C@H]2CC[C@H](C2)C1=O [Compound P3],0
2,CCc1sc(-c2cnc(Cl)cc2C)nc1C1C(=O)[C@@H]2CC[C@@H](C2)C1=O (some centres unmarked) [Compound T110],0
3,Cc1sc(-c2ccc(Cl)c(C#N)c2)nc1C1C(=O)C2CCC(C2)C1=O (centres unmarked) [Compound T74],0
4,Cc1sc(-c2ccc(OC(F)F)cc2Cl)nc1C1C(=O)[C@@H]2CC[C@@H](C2)C1=O (some centres unmarked) [Compound T84],40
5,Cc1cc(Br)ccc1-c1nc(C2=C(OC(=O)C3CC3)[C@@H]3CC[C@@H](C3)C2=O)c(C)s1 [Compound P13],0

# Tested on: Avena fatua (AVEFA)
# Experiment: Example B post-emergence herbicidal activity
# Type: in vivo
# Settings: 312 h, rate 250 g/ha, evaluated after 13 days, read-out: Post-emergence activity AVEFA (100=total damage to plant; 0=no damage to plant)
# Procedure, shortened: as §1
row,SMILES,pest or weed control at 250 g/ha [%]
1,Cc1sc(-c2ccc(Cl)c(Cl)c2)nc1C1=C(OC(=O)C(C)(C)C)[C@H]2CC[C@H](C2)C1=O [Compound P3],0
2,CCc1sc(-c2cnc(Cl)cc2C)nc1C1C(=O)[C@@H]2CC[C@@H](C2)C1=O (some centres unmarked) [Compound T110],70
3,Cc1sc(-c2ccc(Cl)c(C#N)c2)nc1C1C(=O)C2CCC(C2)C1=O (centres unmarked) [Compound T74],0
4,Cc1sc(-c2ccc(OC(F)F)cc2Cl)nc1C1C(=O)[C@@H]2CC[C@@H](C2)C1=O (some centres unmarked) [Compound T84],70
5,Cc1cc(Br)ccc1-c1nc(C2=C(OC(=O)C3CC3)[C@@H]3CC[C@@H](C3)C2=O)c(C)s1 [Compound P13],90

# Tested on: Alopecurus myosuroides (ALOMY)
# Experiment: Example B post-emergence herbicidal activity
# Type: in vivo
# Settings: 312 h, rate 250 g/ha, evaluated after 13 days, read-out: Post-emergence activity ALOMY (100=total damage to plant; 0=no damage to plant)
# Procedure, shortened: as §1
row,SMILES,pest or weed control at 250 g/ha [%]
1,Cc1sc(-c2ccc(Cl)c(Cl)c2)nc1C1=C(OC(=O)C(C)(C)C)[C@H]2CC[C@H](C2)C1=O [Compound P3],60
2,CCc1sc(-c2cnc(Cl)cc2C)nc1C1C(=O)[C@@H]2CC[C@@H](C2)C1=O (some centres unmarked) [Compound T110],60
3,Cc1sc(-c2ccc(Cl)c(C#N)c2)nc1C1C(=O)C2CCC(C2)C1=O (centres unmarked) [Compound T74],50
4,Cc1sc(-c2ccc(OC(F)F)cc2Cl)nc1C1C(=O)[C@@H]2CC[C@@H](C2)C1=O (some centres unmarked) [Compound T84],90
5,Cc1cc(Br)ccc1-c1nc(C2=C(OC(=O)C3CC3)[C@@H]3CC[C@@H](C3)C2=O)c(C)s1 [Compound P13],90
